# According to patent EP4660190A1, “PHARMACEUTICALLY ACCEPTABLE SALT OF COMPOUND AND PREPARATION METHOD THEREFOR” (Jiangsu Chia Tai Fenghai Pharmaceutical Co., Ltd., priority 2023, dated 2024):
# “And” between values parts separate entries of the source, which are not always exact repeats. Identical values can stand only once. Marks after values point to notes of the source that are not given here.
# Experiments:
# [1] = Distribution in plasma and brain tissues of rats; assay type: in vivo, Male SD rats; conditions: rat, 20mg/kg p.o.
# Description: The concentration of compound in the plasma and brain tissue samples was quantified by liquid chromatography-tandem mass spectrometry (LC-MS/MS).
# [2] = Pharmacokinetic test in rats; assay type: in vivo, Male SD rats; conditions: rat; p.o. 10 mg/kg vs i.v. 1 mg/kg
# Protocol: Male SD rats (weighing 180-260g) were administered with the compound of formula (I) intravenously at a dose of 1.0 mg/kg via tail vein injection, and orally at a dose of 10.0 mg/kg. Each group consisted of 3 animals. The solvent for administration was a solution of 5% DMSO + 5% polyethoxylated castor oil (Cremophor EL) in normal saline. The rats were fasted for about 12 h before administration and were given ad libitum access to food 4 h after administration, and water was available all the time. Blood was collected from the orbit at about 0.2 mL before administration and 5 min, 15 min, 30 min, 1 h, 2 h, 4 h, 6 h, 8 h, and 24 h after administration. The samples were placed in EDTA-K2 anticoagulant EP tubes in an ice bath, and subjected to low-speed centrifugation at 4°C and 3500 rpm for 10 min to isolate plasma, which was then stored at -20°C before analysis. The plasma concentration of the compound of formula (I) was determined using liquid chromatography-tandem mass spectrometry (LC-MS/MS). Pharmacokinetic parameters were calculated from the analysis results of the samples using WinNonlin software.
# [3] = tested on: Middle cerebral artery occlusion (MCAO) models of SD rata; assay: Rat MCAO model, 28-day dosing, grid walking test; assay type: in vivo, SD rats; conditions: Mean±SD
# Protocol: Middle cerebral artery occlusion (MCAO) models of SD rata were constructed by using the suture occlusion method. The rats were administered with the test compound for 28 consecutive days. The pharmacodynamic evaluation on the test compound for cerebral stroke was obtained based on general observation and neurobehavioral assessment. […] The ECA was ligated. The ICA was temporarily occluded. Sutures were threaded at both the proximal end and the distal end of CCA. The distal end was securely ligated, and a loosely tied knot was placed at the proximal end. A small incision was made on the CCA between these two sutures. […] The threading was halted temporarily when reaching the artery clamp of ICA. The pre-ligation suture was further tightened. The artery clamp blocking the blood flow in the ICA was removed, allowing the suture occlusion to be advanced into the ICA until it entered the intracranial region. […] The insertion was stopped at the moment, and the time was recorded. The artery clamp on the CCA was removed and the incision was closed after no active bleeding was observed. The ischemic rats were placed at room temperature to keep their body temperature at 37°C, and anesthesia induction could be carried out 120min later. The suture was slowly and gradually withdrawn under anesthesia until the proximal end retracted into the ECA, thereby initiating reperfusion of the middle cerebral artery. Animals received the designated dosage immediately (within 10 min) after reperfusion. This dosing regimen continued once daily for a duration of 28 days, with the day of operation being defined as D1 (Day 0). […] After the completion of the 28-day dosing period, all surviving animals in the study were euthanized, and their brains were rapidly collected for pathological analysis. […] Table 8 Results of Grid Walking Test
# [4] = Pharmacokinetics of butylphthalide in rats (literature values); conditions: rat; calculated based on the literature value of AUC0-inf (p.o. 60 mg/kg vs i.v. 10 mg/kg)
# [5] = tested on: Middle cerebral artery occlusion (MCAO) models of SD rats; assay: Rat MCAO model, 7 daily doses, TTC staining cerebral infarction; assay type: in vivo
# Description: Middle cerebral artery occlusion (MCAO) models of SD rats were constructed using the suture occlusion method to evaluate the neuroprotective effect of the compound on neurons of rats after cerebral ischemia-reperfusion. […] The ECA was ligated. The ICA was temporarily occluded. Sutures were threaded at both the proximal end and the distal end of CCA. The distal end was securely ligated, and a loosely tied knot was placed at the proximal end. A small incision was made on the CCA between these two sutures. […] The threading was halted temporarily when reaching the artery clamp of ICA. The pre-ligation suture was further tightened. The artery clamp blocking the blood flow in the ICA was removed, allowing the suture occlusion to be advanced into the ICA until it entered the intracranial region. […] The insertion was stopped at the moment, and the time was recorded. The artery clamp on the CCA was removed and the incision was closed after no active bleeding was observed. The ischemic rats were placed at room temperature to keep their body temperature at 37°C, and anesthesia induction could be carried out 120min later. The suture was slowly and gradually withdrawn when the rats were maintained under anesthesia, so that the proximal end of the suture returned to the ECA, thereby initiating reperfusion of the middle cerebral artery. […] A single dose was administered immediately after reperfusion (within 10 minutes), followed by one dose per day for a total of 7 consecutive doses (including the first dose). Except for the initial administration, all subsequent doses were given between 4:00 PM and 7:00 PM each day. […] Animals were euthanized 7 days after ischemia reperfusion, and the brains were rapidly taken, frozen, and dissected for TTC staining. The normal tissues were rose-red after staining, and the infarcted tissues were white. The infarct size (%) percentage, calculated as the weight of infarcted tissues to the weight of the whole brain, is used to evaluate the degree of cerebral ischemic injury in rats. […] Table 12 Cerebral infarct size and cerebral infarction inhibition rate of experimental animals
# [6] = Hygroscopicity test (Chinese Pharmacopoeia Section 9103); assay type: physicochemical; conditions: 25°C, 80% relative humidity, 24 hours
# [7] = tested on: MPTP-induced Parkinson's disease model mice; assay: MPTP-induced mouse Parkinson's disease model, striatal dopamine (DOPA) detection; assay type: in vivo, C57 mice; conditions: striatum, four weeks, mean ± SD
# [8] = tested on: MPTP-induced Parkinson's disease model mice; assay: MPTP-induced mouse Parkinson's disease model, TH-positive fiber content in the striatum; assay type: in vivo, C57 mice; conditions: four weeks, mean ± SD
# [9] = tested on: MPTP-induced Parkinson's disease model mice; assay: MPTP-induced mouse Parkinson's disease model, TH-positive cell counts in the substantia nigra pars compacta; assay type: in vivo, C57 mice; conditions: four weeks, mean ± SD
# [10] = 60mg/kg oral, 7 daily doses, 7 days after reperfusion, Mean±SD
# [11] = high dose 20 mg/kg daily, listed as Tromethamine salt from Example 10, 20 mg/kg
# [12] = high dose 20 mg/kg daily, listed as tromethamine salt from Example 10, 20 mg/kg
# [13] = low dose 5 mg/kg daily, listed as Tromethamine salt from Example 10, 5 mg/kg
# [14] = low dose 5 mg/kg daily, listed as tromethamine salt from Example 10, 5 mg/kg
molecule,measurement,setting,value
CCC/C(O)=C1/C(=O)Oc2ccccc21 [Compound (I)],Measured value in brain tissues Concentration,[1]; 0.5 h,8733.3 ng/g
same,Measured value in plasma Concentration,[1]; 0.5 h,241333.3 ng/mL
same,Measured value in brain tissues Concentration,[1]; 1 h,5726.7 ng/g
same,Measured value in plasma Concentration,[1]; 1 h,192333.3 ng/mL
same,Measured value in brain tissues Concentration,[1]; 4h,5030.0 ng/g
same,Measured value in plasma Concentration,[1]; 4h,182333.3 ng/mL
same,Measured value in brain tissues Concentration,[1]; 24 h,285.3 ng/g
same,Measured value in plasma Concentration,[1]; 24 h,23500.0 ng/mL
same,F,[2],144.2%
same,Misstep frequency (times),"[3]; high dose 20mg/kg p.o. q.d., 1W after operation, 20 mg/kg",4.23±1.44 times
same,Misstep frequency (times),"[3]; high dose 20mg/kg p.o. q.d., 1W after operation, listed as compound (I), 20 mg/kg",4.23±1.44 times
same,Misstep frequency (times),"[3]; high dose 20mg/kg p.o. q.d., 2W after operation",3.23± 2.56 times
same,Misstep frequency (times),"[3]; high dose 20mg/kg p.o. q.d., 3W after operation",2.50± 0.81 times
same,Misstep frequency (times),"[3]; high dose 20mg/kg p.o. q.d., 4W after operation",1.42± 1.11 times
same,Misstep frequency (times),"[3]; low dose 6mg/kg p.o. q.d., 1W after operation, 6 mg/kg",5.33± 2.33 times
same,Misstep frequency (times),"[3]; low dose 6mg/kg p.o. q.d., 1W after operation, listed as compound (I), 6 mg/kg",5.33±2.33 times
same,Misstep frequency (times),"[3]; low dose 6mg/kg p.o. q.d., 2W after operation",6.33± 3.53 times
same,Misstep frequency (times),"[3]; low dose 6mg/kg p.o. q.d., 3W after operation",4.38± 2.44 times
same,Misstep frequency (times),"[3]; low dose 6mg/kg p.o. q.d., 4W after operation",2.58± 1.55 times
"CCCCC1OC(=O)c2ccccc21 (stereo not drawn) [Butylphthalide, butylphthalide, reference compound]",Measured value in brain tissues Concentration,[1]; 0.5 h,28.5 ng/g
same,Measured value in plasma Concentration,[1]; 0.5 h,26.0 ng/mL
same,Measured value in brain tissues Concentration,[1]; 1 h,22.8 ng/g
same,Measured value in plasma Concentration,[1]; 1 h,19.1 ng/mL
same,Measured value in brain tissues Concentration,[1]; 4h,10.2 ng/g
same,Measured value in plasma Concentration,[1]; 4h,7.2 ng/mL
same,Measured value in plasma Concentration,[1]; 24 h,1.7 ng/mL
same,F,[4],16.6* %
same,Cerebral infarction inhibition rate (%),[5]; [10],28.624±14.597%
same,Infarct Size (%),[5]; [10],14.241±2.912%
same,Infarct area weight,[5]; [10],0.175 ± 0.032 g
same,Misstep frequency (times),"[3]; 60mg/kg p.o. q.d., 1W after operation, listed as NBP",7.37±3.03 times
same,Misstep frequency (times),"[3]; 60mg/kg p.o. q.d., 2W after operation",8.10± 2.97 times
same,Misstep frequency (times),"[3]; 60mg/kg p.o. q.d., 3W after operation",6.27± 2.890 times
same,Misstep frequency (times),"[3]; 60mg/kg p.o. q.d., 4W after operation",2.10± 1.46 times
(Z)-3-(1-hydroxybutenyl)benzofuran-2-one tromethamine salt [Example 10],hygroscopicity,[6],non-hygroscopic
same,weight gain percentage,[6],0.0%
same,DOPA,[7]; [11],2731.07 ± 868.18 ng/g
same,DOPA,[7]; [12],2731.07 ± 868.18 ng/g
same,DOPA,[7]; [13],837.82±372.19^& ng/g
same,DOPA,[7]; [14],837.82 ± 372.19 ng/g
same,TH-Positive Fiber Content,[8]; [11],709627.56±100462.19^&#
same,TH-Positive Fiber Content,[8]; [12],"709,627.56±100,462.19"
same,TH-Positive Fiber Content,[8]; [13],526554.39±169680.75^&
same,TH-Positive Fiber Content,[8]; [14],"526,554.39±169,680.75"
same,Cerebral infarction inhibition rate (%),"[5]; rat, in vivo",26.236± 12.737% and 31.023± 11.150%
same,Infarct Size (%),"[5]; rat, in vivo",14.717±2.541 % and 13.762±2.225 %
same,Infarct area weight,"[5]; rat, in vivo",0.183 ± 0.036 g and 0.176 ± 0.030 g
same,TH-Positive Cell counts,[9]; [11],42.42±4.36^&#
same,TH-Positive Cell counts,[9]; [12],42.42±4.36
same,TH-Positive Cell counts,[9]; [13],31.22±5.97^&
same,TH-Positive Cell counts,[9]; [14],31.22±5.97
